Data from the NIST ThermoML archive (doi:10.1016/j.fluid.2018.05.028).

Assay: refractive index (Na D-line) (dimensionless); xn = mol fraction of the nth substance listed
Conditions: 101 kPa, Liquid, Standard Abbe refractometry

CCCCCCCC/C=C\CCCCCCCC(=O)OCC [ethyl (Z)-9-octadeceneoate] + CCCO
refractive index
Conditions	x2 = 0	x2 = 0.1	x2 = 0.2	x2 = 0.3	x2 = 0.4	x2 = 0.5	x2 = 0.6	x2 = 0.7	x2 = 0.8	x2 = 0.9
293.15 K	1.4494	1.4484	1.4468	1.4448	1.4422	1.4388	1.4346	1.4287	1.4205	1.408
298.15 K	1.4474	1.4464	1.4448	1.4427	1.4401	1.4367	1.4325	1.4267	1.4184	1.4058
303.15 K	1.4454	1.4444	1.4427	1.4406	1.4381	1.4347	1.4305	1.4246	1.4163	1.4037
308.15 K	1.4433	1.4423	1.4407	1.4386	1.436	1.4326	1.4284	1.4225	1.4142	1.4016
313.15 K	1.4414	1.4403	1.4386	1.4365	1.4339	1.4305	1.4262	1.4204	1.4121	1.3994
318.15 K	1.4395	1.4382	1.4366	1.4344	1.4318	1.4284	1.4241	1.4183	1.4099	1.3973
323.15 K	1.4375	1.4362	1.4345	1.4323	1.4297	1.4263	1.422	1.4161	1.4078	1.3952
328.15 K	1.4355	1.4341	1.4325	1.4303	1.4276	1.4242	1.4199	1.4139	1.4057	1.393
333.15 K	1.4335	1.4321	1.4304	1.4282	1.4255	1.422	1.4178	1.4118	1.4035	1.3907
338.15 K	1.4315	1.4301	1.4284	1.4261	1.4234	1.4199	1.4156	1.4096	1.4013	1.3884
343.15 K	1.4296	1.4281	1.4264	1.4241	1.4213	1.4178	1.4134	1.4074	1.3991	1.3861
